Experimental data reported in the OligoGym collection.
HELM strings list units from the 5' end as sugar, base in round brackets, then linkage (d deoxyribose, r ribose, m 2'-O-methyl, p phosphodiester). Strings are as the collection lists them; they lack the last nucleoside at the 3' end of the tested compound. [moe] = 2'-O-(2-methoxyethyl) (MOE); [sp] = phosphorothioate linkage; [m5C] = 5-methylcytosine

Target: ATXN2
Experiment: mouse, dose not given
Conditions: ASO

Q: How did the 3 h FOB score turn out when “RNA1{[moe](T)[sp].[moe](A)p.[moe](G)p.[moe](T)p.[moe](G)p.d(T)[sp].d(T)[sp].d(T)[sp].d(G)[sp].d(G)[sp].d(G)[sp].d(A)[sp].d(T)[sp].d(G)[sp].d([m5C])[sp].[moe](T)p.[moe](T)p.[moe]([m5C])[sp].[moe](A)}$$$$ (last 3' nucleoside missing)” was run?
A: 6.25 score 0-7

Q: How did the 3 h FOB score turn out when “RNA1{[moe](T)[sp].[moe](A)p.[moe](G)p.[moe]([m5C])p.[moe](A)p.d(T)[sp].d([m5C])[sp].d(A)[sp].d(T)[sp].d(T)[sp].d(G)[sp].d(G)[sp].d([m5C])[sp].d(G)[sp].d([m5C])[sp].[moe](A)p.[moe](T)p.[moe](G)[sp].[moe](G)}$$$$ (last 3' nucleoside missing)” was run?
A: 6.25 score 0-7

Q: For “RNA1{[moe](T)[sp].[moe](A)p.[moe](G)p.[moe]([m5C])p.[moe](A)p.d([m5C])[sp].d(T)[sp].d(T)[sp].d(G)[sp].d(G)[sp].d(T)[sp].d(T)[sp].d([m5C])[sp].d(A)[sp].d(A)[sp].[moe](T)p.[moe](T)p.[moe](T)[sp].[moe](T)}$$$$ (last 3' nucleoside missing)”, which 3 h FOB score is on record?
A: 6 score 0-7

Q: “RNA1{[moe](T)[sp].[moe](A)p.[moe](G)p.[moe]([m5C])p.[moe](T)p.d([m5C])[sp].d(A)[sp].d(T)[sp].d([m5C])[sp].d(A)[sp].d(A)[sp].d(G)[sp].d(G)[sp].d(T)[sp].d(A)[sp].[moe]([m5C])p.[moe]([m5C])p.[moe](A)[sp].[moe](G)}$$$$ (last 3' nucleoside missing)” was tested. Which 3 h FOB score did it give?
A: 3 score 0-7

Q: How did the 3 h FOB score turn out when “RNA1{[moe](T)[sp].[moe](A)p.[moe](T)p.[moe](G)p.[moe](A)p.d(G)[sp].d(G)[sp].d(G)[sp].d(A)[sp].d([m5C])[sp].d(T)[sp].d(A)[sp].d(G)[sp].d(A)[sp].d(G)[sp].[moe]([m5C])p.[moe](A)p.[moe](T)[sp].[moe]([m5C])}$$$$ (last 3' nucleoside missing)” was run?
A: 6.25 score 0-7

Q: For “RNA1{[moe](T)[sp].[moe](A)p.[moe](T)p.[moe](G)p.[moe](T)[sp].d(T)[sp].d(T)[sp].d(G)[sp].d(T)[sp].d([m5C])[sp].d(T)[sp].d(G)[sp].d(T)[sp].[moe]([m5C])p.[moe](T)p.[moe](T)[sp].[moe](A)}$$$$ (last 3' nucleoside missing)”, which 3 h FOB score is on record?
A: 6 score 0-7

Q: “RNA1{[moe](T)[sp].[moe](A)p.[moe](T)p.[moe]([m5C])p.[moe](A)[sp].d(T)[sp].d([m5C])[sp].d(A)[sp].d(T)[sp].d(T)[sp].d(T)[sp].d(T)[sp].d([m5C])[sp].[moe]([m5C])p.[moe](A)p.[moe](G)[sp].[moe](G)}$$$$ (last 3' nucleoside missing)” was tested. Which 3 h FOB score did it give?
A: 1.5 score 0-7

Q: For “RNA1{[moe](T)[sp].[moe](A)p.[moe](T)p.[moe]([m5C])p.[moe](A)p.d(T)[sp].d([m5C])[sp].d(A)[sp].d(T)[sp].d(T)[sp].d(T)[sp].d(T)[sp].d([m5C])[sp].d([m5C])[sp].d(A)[sp].[moe](G)p.[moe](G)p.[moe](G)[sp].[moe]([m5C])}$$$$ (last 3' nucleoside missing)”, which 3 h FOB score is on record?
A: 4.75 score 0-7

Q: How did the 3 h FOB score turn out when “RNA1{[moe](T)[sp].[moe](A)p.[moe]([m5C])p.[moe](A)p.[moe](G)p.d(G)[sp].d(T)[sp].d(G)[sp].d(A)[sp].d(G)[sp].d(A)[sp].d(T)[sp].d(A)[sp].d(T)[sp].d(A)[sp].[moe](T)p.[moe](A)p.[moe](G)[sp].[moe](G)}$$$$ (last 3' nucleoside missing)” was run?
A: 4 score 0-7

Q: Which 3 h FOB score does the source give for “RNA1{[moe](T)[sp].[moe](A)p.[moe]([m5C])p.[moe](A)p.[moe]([m5C])p.d(A)[sp].d(G)[sp].d(T)[sp].d(T)[sp].d(T)[sp].d([m5C])[sp].d(A)[sp].d([m5C])[sp].d(T)[sp].d(A)[sp].[moe](G)p.[moe](G)p.[moe](T)[sp].[moe](T)}$$$$ (last 3' nucleoside missing)” here?
A: 1 score 0-7

Q: How did the 3 h FOB score turn out when “RNA1{[moe](T)[sp].[moe](A)p.[moe]([m5C])p.[moe](G)p.[moe]([m5C])p.d(G)[sp].d(G)[sp].d(T)[sp].d(G)[sp].d(A)[sp].d(A)[sp].d(T)[sp].d(T)[sp].d([m5C])[sp].d(T)[sp].[moe](G)p.[moe](T)p.[moe]([m5C])[sp].[moe](T)}$$$$ (last 3' nucleoside missing)” was run?
A: 0 score 0-7

Q: Which 3 h FOB score does the source give for “RNA1{[moe](T)[sp].[moe](A)p.[moe]([m5C])p.[moe](T)p.[moe](G)[sp].d(T)[sp].d(T)[sp].d(T)[sp].d([m5C])[sp].d(G)[sp].d(A)[sp].d([m5C])[sp].d([m5C])[sp].[moe](T)p.[moe]([m5C])p.[moe](T)[sp].[moe](G)}$$$$ (last 3' nucleoside missing)” here?
A: 4.75 score 0-7

Q: How did the 3 h FOB score turn out when “RNA1{[moe](T)[sp].[moe](A)p.[moe]([m5C])p.[moe](T)p.[moe](G)p.d(T)[sp].d(T)[sp].d(T)[sp].d([m5C])[sp].d(G)[sp].d(A)[sp].d([m5C])[sp].d([m5C])[sp].d(T)[sp].d([m5C])[sp].[moe](T)p.[moe](G)p.[moe](A)[sp].[moe](A)}$$$$ (last 3' nucleoside missing)” was run?
A: 3 score 0-7

Q: For “RNA1{[moe](T)[sp].[moe](A)p.[moe]([m5C])p.[moe](T)p.[moe](T)[sp].d(T)[sp].d(T)[sp].d([m5C])[sp].d(T)[sp].d([m5C])[sp].d(A)[sp].d(T)[sp].d(G)[sp].[moe](T)p.[moe](G)p.[moe]([m5C])[sp].[moe](G)}$$$$ (last 3' nucleoside missing)”, which 3 h FOB score is on record?
A: 4.75 score 0-7

Q: With “RNA1{[moe](T)[sp].[moe](A)p.[moe]([m5C])p.[moe](T)p.[moe](T)[sp].d([m5C])[sp].d(A)[sp].d([m5C])[sp].d(A)[sp].d(T)[sp].d(T)[sp].d(T)[sp].d(G)[sp].[moe](G)p.[moe](A)p.[moe](G)[sp].[moe]([m5C])}$$$$ (last 3' nucleoside missing)” as the substance, how does the 3 h FOB score read?
A: 3.25 score 0-7

Q: How did the 3 h FOB score turn out when “RNA1{[moe](T)[sp].[moe](A)p.[moe]([m5C])p.[moe](T)p.[moe](T)p.[moe](T)p.d(T)[sp].d([m5C])[sp].d(T)[sp].d([m5C])[sp].d(A)[sp].d(T)[sp].d(G)[sp].d(T)[sp].d(G)[sp].d([m5C])[sp].[moe](G)p.[moe](G)[sp].[moe]([m5C])}$$$$ (last 3' nucleoside missing)” was run?
A: 5.5 score 0-7

Q: For “RNA1{[moe](T)[sp].[moe](A)p.[moe]([m5C])p.[moe](T)p.[moe](T)p.d(T)[sp].d(T)[sp].d([m5C])[sp].d(T)[sp].d([m5C])[sp].d(A)[sp].d(T)[sp].d(G)[sp].d(T)[sp].d(G)[sp].[moe]([m5C])p.[moe](G)p.[moe](G)[sp].[moe]([m5C])}$$$$ (last 3' nucleoside missing)”, which 3 h FOB score is on record?
A: 3.75 score 0-7

Q: With “RNA1{[moe](T)[sp].[moe](A)p.[moe]([m5C])p.[moe](T)p.[moe](T)p.d([m5C])[sp].d(A)[sp].d([m5C])[sp].d(A)[sp].d(T)[sp].d(T)[sp].d(T)[sp].d(G)[sp].d(G)[sp].d(A)[sp].[moe](G)p.[moe]([m5C])p.[moe]([m5C])[sp].[moe]([m5C])}$$$$ (last 3' nucleoside missing)” as the substance, how does the 3 h FOB score read?
A: 5.25 score 0-7

Q: “RNA1{[moe](T)[sp].[moe](A)p.[moe]([m5C])p.[moe](T)p.[moe]([m5C])p.d(T)[sp].d([m5C])[sp].d([m5C])[sp].d(A)[sp].d(T)[sp].d(T)[sp].d(A)[sp].d(T)[sp].d(T)[sp].d(T)[sp].[moe]([m5C])p.[moe](T)p.[moe](T)[sp].[moe]([m5C])}$$$$ (last 3' nucleoside missing)” was tested. Which 3 h FOB score did it give?
A: 2.25 score 0-7

Q: How did the 3 h FOB score turn out when “RNA1{[moe](T)[sp].[moe](A)p.[moe]([m5C])p.[moe](T)p.d(T)[sp].d(T)[sp].d(T)[sp].d([m5C])[sp].d(T)[sp].d([m5C])[sp].d(A)[sp].d(T)[sp].d(G)[sp].d(T)[sp].[moe](G)p.[moe]([m5C])p.[moe](G)p.[moe](G)[sp].[moe]([m5C])}$$$$ (last 3' nucleoside missing)” was run?
A: 1.75 score 0-7

Q: Which 3 h FOB score does the source give for “RNA1{[moe](T)[sp].[moe](G)[sp].[moe]([m5C])[sp].[moe](A)[sp].[moe](T)[sp].d(A)[sp].d(G)[sp].d(A)[sp].d(T)[sp].d(T)[sp].d([m5C])[sp].d([m5C])[sp].d(A)[sp].d(T)[sp].d([m5C])[sp].[moe](A)[sp].[moe](A)[sp].[moe](A)[sp].[moe](A)}$$$$ (last 3' nucleoside missing)” here?
A: 7 score 0-7

Q: With “RNA1{[moe](T)[sp].[moe](G)p.[moe](A)p.[moe](G)p.[moe](T)p.d(T)[sp].d([m5C])[sp].d(A)[sp].d([m5C])[sp].d([m5C])[sp].d(T)[sp].d(G)[sp].d([m5C])[sp].d(A)[sp].d(T)[sp].[moe]([m5C])p.[moe]([m5C])p.[moe]([m5C])[sp].[moe](A)}$$$$ (last 3' nucleoside missing)” as the substance, how does the 3 h FOB score read?
A: 5.75 score 0-7

Q: Which 3 h FOB score does the source give for “RNA1{[moe](T)[sp].[moe](G)p.[moe](A)p.[moe](T)p.[moe]([m5C])p.d(T)[sp].d(T)[sp].d(G)[sp].d(T)[sp].d(G)[sp].d(T)[sp].d(A)[sp].d(T)[sp].d(A)[sp].d(T)[sp].[moe](A)p.[moe](T)p.[moe](T)[sp].[moe](A)}$$$$ (last 3' nucleoside missing)” here?
A: 6 score 0-7

Q: How did the 3 h FOB score turn out when “RNA1{[moe](T)[sp].[moe](G)p.[moe](G)p.[moe](A)p.[moe](T)[sp].d(T)[sp].d([m5C])[sp].d(T)[sp].d(G)[sp].d(T)[sp].d(A)[sp].d([m5C])[sp].d(T)[sp].[moe](T)p.[moe](T)p.[moe](T)[sp].[moe]([m5C])}$$$$ (last 3' nucleoside missing)” was run?
A: 5.25 score 0-7

Q: With “RNA1{[moe](T)[sp].[moe](G)p.[moe](G)p.[moe](A)p.[moe](T)p.[moe](T)p.d([m5C])[sp].d(T)[sp].d(G)[sp].d(T)[sp].d(A)[sp].d([m5C])[sp].d(T)[sp].d(T)[sp].d(T)[sp].d(T)[sp].[moe]([m5C])p.[moe](T)[sp].[moe]([m5C])}$$$$ (last 3' nucleoside missing)” as the substance, how does the 3 h FOB score read?
A: 1 score 0-7

Q: For “RNA1{[moe](T)[sp].[moe](G)p.[moe](G)p.[moe](A)p.[moe](T)p.d(T)[sp].d([m5C])[sp].d(T)[sp].d(G)[sp].d(T)[sp].d(A)[sp].d([m5C])[sp].d(T)[sp].d(T)[sp].d(T)[sp].[moe](T)p.[moe]([m5C])p.[moe](T)[sp].[moe]([m5C])}$$$$ (last 3' nucleoside missing)”, which 3 h FOB score is on record?
A: 5.25 score 0-7

Q: For “RNA1{[moe](T)[sp].[moe](G)p.[moe](G)p.[moe](A)p.d(T)[sp].d(T)[sp].d([m5C])[sp].d(T)[sp].d(G)[sp].d(T)[sp].d(A)[sp].d([m5C])[sp].d(T)[sp].d(T)[sp].[moe](T)p.[moe](T)p.[moe]([m5C])p.[moe](T)[sp].[moe]([m5C])}$$$$ (last 3' nucleoside missing)”, which 3 h FOB score is on record?
A: 3.5 score 0-7
